Consider five compounds from article PMC11873900, “Insights into the Activation Mechanism of HCA1, HCA2, and HCA3” (Journal of Medicinal Chemistry, 2025).

One assay concerns the target T1, HCA1 R99A (Homo sapiens, UniProt Q9BXC0, R99A).
T1 construct: expressed in transfected cells; host or cells: HEK293
Description: cAMP reporter assay, HCA1 mutant R99A. The assay is classed as cell-based. The settings on record: HCA1 R99A (Figure 2f). The protocol:
(§1) Human embryonic kidney 293 (HEK293) cells were maintained in Dulbecco’s modified Eagle’s medium (DMEM) containing 10% fetal bovine serum (FBS) and antibiotics (100 U/mL penicillin and 100 μg/mL streptomycin) at 37 °C, 5% CO2. Cells (1 × 10^6 per well) were seeded on 6-well plates for 15 h and transiently transfected with a transfection cocktail containing 2 μg of plasmid DNA (1 μg of the target plasmid and 1 μg of pCRE-luc) and 6 μL of X-tremeGENE HP DNA transfection reagents dissolved in 200 μL of phenol red-free OPTI MEM. After 24 h incubation, the medium containing the transfection cocktail was replaced with a serum-supplemented normal culture medium, and cells were plated at a density of approximately 40000 cells/well in white opaque 96-well microplates for an additional 24 h. After 24 h, fresh medium with varied concentrations of ligands was added to the wells, and cells were incubated for 30 min at 37 °C, 5% CO2. Then, forsklin with a final concentration of 5 μM was added to each well for 6 h. Then, all of the medium was removed and 40 μL of Bright-Glo Luciferase Assay System reagent (Promega, U.K.) was added to each well. Luminance was measured in a luminometer (TECAN Spark, CH) after 10 min incubation.
For orientation: Reporter assays use an easily measured gene product as a stand-in for the process of interest.

The target of assay [1] is T2, HCA1 (Homo sapiens, UniProt Q9BXC0).
T2 construct: expressed in transfected cells; host or cells: HEK293
Description: cAMP inhibition (CRE-luc reporter) assay, HCA1 wild type. The assay is classed as cell-based. The following applies: HEK293 cells, mean ± SEM (Table S2a,b). As for the experimental part: as §1

Assay [2] relates to HCA1. The following applies: cited from earlier work.
The target in a further assay is T3, HCA3(1–129)/HCA2(130-) (Homo sapiens, UniProt P49019, H253R/I178S/I317M/I346M/L167M/L168P/R187Q/T173G/V156I/V176L/W142R).
T3 construct: swap the amino acid segments 1–129 between HCA2 and HCA3; creating chimeras HCA2(1–129)/HCA3(130-) and HCA3(1–129)/HCA2(130-); expressed in transfected cells; host or cells: HEK293
The experiment in a line: IP1 accumulation assay, chimera HCA3(1–129)/HCA2(130-). The assay is classed as cell-based. The settings on record: IP1 accumulation (Figure 3d).

For assay [3], the target named is T4, HCA3(1–129)/HCA2(130-) S178^45.51I (Homo sapiens, UniProt Q8TDS4, L107F/L83V/M103V/N86Y/S178I/V27A/W91S).
T4 construct: swap the amino acid segments 1–129 between HCA2 and HCA3; creating chimeras HCA2(1–129)/HCA3(130-) and HCA3(1–129)/HCA2(130-); expressed in transfected cells; host or cells: HEK293
The experiment in a line: IP1 accumulation assay, chimera HCA3(1–129)/HCA2(130-) with S178I. The assay is classed as cell-based. The settings on record: HCA3(1–129)/HCA2(130-) with mutation S178I (Figure 3d).

The next assay addresses T5, HCA2(1–129)/HCA3(130-) (Homo sapiens, UniProt Q8TDS4, G173T/I156V/L176V/M167L/M317I/M346I/P168L/Q187R/R142W/R253H/S178I).
T5 construct: swap the amino acid segments 1–129 between HCA2 and HCA3; creating chimeras HCA2(1–129)/HCA3(130-) and HCA3(1–129)/HCA2(130-); expressed in transfected cells; host or cells: HEK293
Description: IP1 accumulation assay, chimera HCA2(1–129)/HCA3(130-). The assay is classed as cell-based. The following applies: IP1 accumulation (Figure 3d). The protocol: The HCA1/HCA2/HCA3 plasmid was transfected into the HEK293 cells (Invitrogen) and cultured for 2 days. The HEK293 cells expressing HCA1/HCA2/HCA3 were washed by PBS and resuspended by the stimulation buffer from a Cisbio Bioassays’ IP-One Gq kit. […] After incubation at 37 °C for 90 min, 3μl Tb Cryptate Antibody and 3μl IP1 d2 Reagent were added to 384-well plates per well. […] The data was analyzed by GraphPad Prism 8.4.0 (GraphPad Software).

For assay [4], the target named is T6, HCA2(1–129)/HCA3(130-) N86^2.63Y W91^ECL1S (Homo sapiens, UniProt Q8TDS4, G173T/I156V/L176V/M167L/M317I/M346I/N86Y/P168L/Q187R/R142W/R253H/S178I/W91S).
T6 construct: swap the amino acid segments 1–129 between HCA2 and HCA3; creating chimeras HCA2(1–129)/HCA3(130-) and HCA3(1–129)/HCA2(130-); expressed in transfected cells; host or cells: HEK293
Description: IP1 accumulation assay, chimera HCA2(1–129)/HCA3(130-) with N86Y and W91S. Type of assay: cell-based. The following applies: HCA2(1–129)/HCA3(130-) with N86Y and W91S (Figure 3d).

Another assay concerns the target T7, HCA1 E166^45.51I (Homo sapiens, UniProt Q9BXC0, E166I).
T7 construct: expressed in transfected cells; host or cells: HEK293
Description: cAMP reporter assay, HCA1 mutant E166I. The following applies: HCA1 E166I (Figure 2f). Type of assay: cell-based. As for the experimental part: as §1

The next assay deals with T8, HCA1 R240^6.55A (Homo sapiens, UniProt Q9BXC0, R240A).
T8 construct: expressed in transfected cells; host or cells: HEK293
Description: cAMP reporter assay, HCA1 mutant R240A. Type of assay: cell-based. The settings on record: HCA1 R240A versus wild type (Figure 2f). As for the experimental part:
as §1

For the next assay, the target named is T9, HCA1 E166^45.51A (Homo sapiens, UniProt Q9BXC0, E166A).
T9 construct: expressed in transfected cells; host or cells: HEK293
Description: cAMP reporter assay, HCA1 mutant E166A. The settings on record: HCA1 E166A (Figure 2f). The assay is classed as cell-based. The protocol:
as §1

The target of the next assay is T10, HCA1 H261^7.36F (Homo sapiens, UniProt Q9BXC0, H261F).
T10 construct: expressed in transfected cells; host or cells: HEK293
Description: cAMP reporter assay, HCA1 mutant H261F. Type of assay: cell-based. The settings on record: HCA1 H261F (Figure 2f). The protocol:
as §1

Like-named read-outs stand apart in the source and are kept apart here.

T2 sequence (Q9BXC0 whole entry): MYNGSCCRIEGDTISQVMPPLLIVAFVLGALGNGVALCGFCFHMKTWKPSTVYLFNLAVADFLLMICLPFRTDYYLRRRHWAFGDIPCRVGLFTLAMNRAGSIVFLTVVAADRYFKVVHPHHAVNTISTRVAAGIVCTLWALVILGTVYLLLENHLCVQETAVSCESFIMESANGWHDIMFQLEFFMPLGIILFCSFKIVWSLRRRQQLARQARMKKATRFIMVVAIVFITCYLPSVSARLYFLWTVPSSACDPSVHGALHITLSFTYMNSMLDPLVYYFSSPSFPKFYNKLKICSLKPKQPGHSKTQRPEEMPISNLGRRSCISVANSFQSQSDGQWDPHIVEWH
T1 sequence (Q9BXC0 whole entry R99A): as the sequence (Q9BXC0 whole entry) above, with R99A counted along it
T7 sequence (Q9BXC0 whole entry E166I): as the sequence (Q9BXC0 whole entry) above, with E166I counted along it
T6 sequence (Q8TDS4 with tags, fused parts or gaps with the stated changes): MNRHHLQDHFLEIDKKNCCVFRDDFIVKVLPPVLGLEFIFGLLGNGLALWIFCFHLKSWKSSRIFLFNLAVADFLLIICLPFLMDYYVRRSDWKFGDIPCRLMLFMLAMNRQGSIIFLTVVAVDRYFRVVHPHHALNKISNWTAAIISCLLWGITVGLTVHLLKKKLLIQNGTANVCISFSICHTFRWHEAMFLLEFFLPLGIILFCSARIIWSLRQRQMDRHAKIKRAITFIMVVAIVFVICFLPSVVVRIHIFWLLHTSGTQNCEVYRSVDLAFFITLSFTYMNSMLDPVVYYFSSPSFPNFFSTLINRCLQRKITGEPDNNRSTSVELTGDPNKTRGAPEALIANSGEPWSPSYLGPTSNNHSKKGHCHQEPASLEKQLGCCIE
T9 sequence (Q9BXC0 whole entry E166A): as the sequence (Q9BXC0 whole entry) above, with E166A counted along it
T10 sequence (Q9BXC0 whole entry H261F): as the sequence (Q9BXC0 whole entry) above, with H261F counted along it
T4 sequence (Q8TDS4 whole entry V27A/L83V/N86Y/W91S/M103V/L107F/S178I): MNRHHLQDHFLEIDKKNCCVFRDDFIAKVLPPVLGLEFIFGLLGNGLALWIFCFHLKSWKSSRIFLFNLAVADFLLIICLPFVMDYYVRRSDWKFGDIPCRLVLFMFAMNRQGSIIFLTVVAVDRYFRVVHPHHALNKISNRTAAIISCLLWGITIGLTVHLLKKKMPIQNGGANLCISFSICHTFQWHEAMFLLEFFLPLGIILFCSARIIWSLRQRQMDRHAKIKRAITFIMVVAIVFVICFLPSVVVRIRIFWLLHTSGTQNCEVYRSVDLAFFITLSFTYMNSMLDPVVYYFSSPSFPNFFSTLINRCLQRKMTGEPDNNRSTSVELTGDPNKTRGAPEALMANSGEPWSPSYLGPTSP
T5 sequence (Q8TDS4 with tags, fused parts or gaps with the stated changes): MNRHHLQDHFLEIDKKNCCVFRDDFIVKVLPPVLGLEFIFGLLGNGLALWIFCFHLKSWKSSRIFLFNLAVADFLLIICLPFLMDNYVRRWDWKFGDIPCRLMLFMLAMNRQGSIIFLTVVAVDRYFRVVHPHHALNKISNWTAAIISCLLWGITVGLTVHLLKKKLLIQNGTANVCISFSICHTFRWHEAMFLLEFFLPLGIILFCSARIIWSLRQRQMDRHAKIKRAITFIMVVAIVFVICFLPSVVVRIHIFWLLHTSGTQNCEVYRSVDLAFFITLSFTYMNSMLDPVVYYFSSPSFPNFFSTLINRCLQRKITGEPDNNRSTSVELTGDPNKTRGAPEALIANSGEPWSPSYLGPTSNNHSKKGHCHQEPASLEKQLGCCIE
T3 sequence (P49019 with tags, fused parts or gaps with the stated changes): as the sequence (Q8TDS4 whole entry V27A/L83V/N86Y/W91S/M103V/L107F/S178I) above, with I178S counted along it
T8 sequence (Q9BXC0 whole entry R240A): as the sequence (Q9BXC0 whole entry) above, with R240A counted along it

On to `CC(O)C(=O)O` (stereo not drawn) [lactate], for which, on HCA1 R99A, the potency at mutant result is “complete loss of potency”. The pEC50 – broadly, −log10 of the EC50, conventionally taken in molar units – on HCA1 [1] stood at 3.2 ± 0.3. Moreover, the EC50 (as a rule, the concentration giving half of the maximal effect) with HCA1 [2] (HCA1, endogenous agonist) is 1000 to 5000 µM.

Take `CCCCCC(O)CC(=O)O` (stereo not drawn) [3-HO, 3-hydroxy-octanoic acid]: the activation of chimera result is “capable of activating” at HCA3(1–129)/HCA2(130-), “highest potency” in assay [3], “failed to activate” at HCA2(1–129)/HCA3(130-) and “did not facilitate activation” in assay [4].

Turning to `O=C(O)c1cc(O)cc(O)c1` [3,5-DHBA, 3,5-dihydroxybenzoic acid], the potency at mutant entry on HCA1 R99A is recorded as “complete loss of potency”. Further, the “activation efficacy compared with the wild type” value at HCA1 E166^45.51I is “halving of the activation efficacy”. The “reduction of activation efficacy” value on HCA1 R240^6.55A was “around 50%”. Also, the receptor activation result on HCA1 E166^45.51A was “inactivity”. In addition, on HCA1 H261^7.36F, the “efficacy compared with H261A” value is listed as “marked decrease of efficacy”. This compound also had a pEC50 at HCA1 [1] of 3.7 ± 0.1.

On to 3-hydroxybutyric acid [3-HBA], for which, in the assay with HCA1 [2] (HCA1), the EC50 is roughly 184 µM.

As for `CCOc1cc(Cl)c(C(=O)NC(=O)Nc2nc3ccc(CN4CCN(C)CC4)cc3s2)cc1N1CCOCC1` [AZ2, 2-chloro-4-ethoxy-N-[[6-[(4-methylpiperazin-1-yl)methyl]-1,3-benzothiazol-2-yl]carbamoyl]-5-morpholino-benzamide], the EC50 with HCA1 [2] (HCA1) is 0.07 to 0.18 µM.
